Assay results published in patent publication US20220079966A1, “HYALURONAN SYNTHESIS INHIBITION FOR TREATING AUTOIMMUNE, INFLAMMATORY, FIBROTIC, OR PROLIFERATIVE DISEASES OR DISORDERS” (The Board of Trustees of the Leland Stanford Junior …, priority 2018, published 2022).

Columns and labels:
DORmO mice = assay: DORmO mouse model of type 1 diabetes; format: in vivo; conditions: for HA accumulation in DORmO pancreatic islets (HA staining): 12 weeks of age, compared to untreated DORmO mice; for onset / progression of T1D as measured by blood glucose over time: fed from 5 weeks of age for 15 weeks
Excerpt: 10×RIPmOVA (DORmO) mouse. DORmO mice carry a T-cell receptor transgene specific for OVA (emulating autoreactive CD4+ T-cells), while simultaneously expressing OVA in conjunction with the insulin gene promoter on pancreatic beta cells (emulating the autoantigen). All animals were bred and maintained under specific pathogen-free conditions, with free access to food and water, in the animal facilities at Stanford University Medical School (Stanford, Calif.). B6 db/db LeptR-/- mice were purchased from Jackson Laboratories (JAX) as well as DO11.10 transgenic mice. The DO11.10 mice were bred with Balb/c mice expressing RIPmOva (ovalbumin peptide amino acids 323-339; available at the Benaroya Research Institute) to generate the DORmO double-transgenic mice. In addition, C57Bl/6J mice were bred in-house at Stanford University School of Medicine. Beginning at four weeks of age, mice were weighed weekly as well as bled via the tail vein for the determination of their blood glucose level using a Contour® blood glucose meter and blood glucose monitoring strips (Bayer Healthcare). When two consecutive blood glucose readings of 250 mg/dL were recorded, animals were considered diabetic. When two consecutive blood glucose readings of 300 mg/dL were recorded, animals were euthanized. The 4-MU (Alfa Aesar) was pressed into mouse chow (TestDiet, St. Louis, Mo.) and irradiated before shipment, as previously described (Nagy N., et al., Circulation. 2010; 122(22):2313-2322). This chow formulation delivers 250 mg/mouse/day, yielding a serum drug concentration of 640.3±17.2 nmol/L in mice, as measured by HPLC-MS. 4-MUG ([…], Wood Dale, Ill.) was distributed in the drinking water at a concentration of 2 mg/ml, delivering 10 mg/mouse/day, yielding a serum drug concentration of 357.1±72.6 ng/mL in mice, as measured by LC-MS/MS. Mice were initiated on 4-MU and 4-MUG at five, eight or twelve weeks of age, unless otherwise noted, and were maintained on this diet until they were euthanized, unless otherwise noted. For analysis of Foxp3+ regulatory T-cell numbers in naïve mice, mice were treated daily with 0.5 mg of 4-MU or 1.0 mg 4-MUG in 200 μl 0.08% carboxymethylcellulose in saline by intra-peritoneal injection. Tissues for histochemistry were extracted from the animals and immediately transferred into 10% neutral buffered formalin (NBF). The tissue was processed to paraffin on a Leica ASP300 Tissue Processor (Leica Microsystems Inc.). Then 5 μm thick sections were cut on a Leica RM 2255 Microtomes (Leica Microsystems Inc.). All staining steps were performed on a Leica Bond-MaxTM automated immune histochemistry (IHC) stainer (Leica Microsystems Inc.). For HA affinity histochemistry (AFC) the BondTM Intense R Detection kit, a streptavidin-HRP system, (Leica Microsystems, Inc.) was used with 4 μg/mL biotinylated-HABP in 0.1% BSA-PBS as the primary. The BondTM Polymer Detection Kit was used for all other immunohistochemistry. This detection kit contains a goat anti-rabbit conjugated to polymeric HRP and a rabbit anti-mouse post primary reagent for use with mouse primaries. For Foxp3 and insulin (anti-insulin, ab7842 abcam) sections were incubated 60 min with 8 μg/mL rat anti-Foxp3 clone FJK-16s (eBioscience). Incubation with rabbit anti rat IgG (Vector Labs), post-primary was added in lieu of the post-primary reagent from the kit.

db/db mice = assay: db/db mouse model of type 2 diabetes; format: in vivo; conditions: for body weight of db/db mice: after start of treatment; for intra-peritoneal glucose tolerance testing (IPGTT): fasting db/db mice fed drug for previous 2 weeks; for HA staining in pancreatic islets of db/db mice: mouse, in vivo; for blood glucose (BG) levels in db/db mice: over one month, 4-MU chow or 4-MUG in drinking water vs control chow
Excerpt: All animals were bred and maintained under specific pathogen-free conditions, with free access to food and water, in the animal facilities at Stanford University Medical School (Stanford, Calif.). B6 db/db LeptR−/− mice were purchased from Jackson Laboratories (JAX) as well as DO11.10 transgenic mice. The DO11.10 mice were bred with Balb/c mice expressing RIPmOva (ovalbumin peptide amino acids 323-339; available at the Benaroya Research Institute) to generate the DORmO double-transgenic mice. In addition, C57Bl/6J mice were bred in-house at Stanford University School of Medicine.
Beginning at four weeks of age, mice were weighed weekly as well as bled via the tail vein for the determination of their blood glucose level using a Contour® blood glucose meter and blood glucose monitoring strips (Bayer Healthcare). When two consecutive blood glucose readings of 250 mg/dL were recorded, animals were considered diabetic. When two consecutive blood glucose readings of 300 mg/dL were recorded, animals were euthanized.
The 4-MU (Alfa Aesar) was pressed into mouse chow (TestDiet, St. Louis, Mo.) and irradiated before shipment, as previously described (Nagy N., et al., Circulation. 2010; 122(22):2313-2322). This chow formulation delivers 250 mg/mouse/day, yielding a serum drug concentration of 640.3±17.2 nmol/L in mice, as measured by HPLC-MS. 4-MUG (ChemImpex, Wood Dale, Ill.) was distributed in the drinking water at a concentration of 2 mg/ml, delivering 10 mg/mouse/day, yielding a serum drug concentration of 357.1±72.6 ng/mL in mice, as measured by LC-MS/MS. Mice were initiated on 4-MU and 4-MUG at five, eight or twelve weeks of age, unless otherwise noted, and were maintained on this diet until they were euthanized, unless otherwise noted. For analysis of Foxp3+ regulatory T-cell numbers in naïve mice, mice were treated daily with 0.5 mg of 4-MU or 1.0 mg 4-MUG in 200 μl 0.08% carboxymethylcellulose in saline by intra-peritoneal injection.
To assess whether 4-MUG is effective against HA synthesis in a different inflammatory disease that is non-autoimmune in nature, the role of 4-MUG in the db/db model of type 2 diabetes was investigated. db/db mice lack a functional leptin receptor and are obese and diabetic.
Referring to FIG. 7D, the beneficial effect of 4-MU and 4-MUG on glycemic control was maintained for at least 10 weeks, indicating a lasting improvement. FIGS. 7F and 7G show intra-peritoneal glucose tolerance testing (IPGTT) of fasting db/db mice fed 4-MU or 4-MUG for 2 weeks.

[1] = cited from earlier work

Compound	HA accumulation in DORmO pancreatic islets (HA staining) (DORmO mice)	onset / progression of T1D as measured by blood glucose over time (DORmO mice)	body weight of db/db mice (db/db mice)	intra-peritoneal glucose tolerance testing (IPGTT) (db/db mice)	HA staining in pancreatic islets of db/db mice (db/db mice)	blood glucose (BG) levels in db/db mice (db/db mice)	concentration of 4-MUG relative to parent molecule 4-MU ([1]; animal studies)	median plasma concentration of 4-MUG relative to 4-MU ([1]; mouse models)	insulin positive cells in pancreatic islets (DORmO mice; DORmO mice)	Foxp3 regulatory T-cells in pancreatic islets (FoxP3 staining) (DORmO mice; non-diabetic treated DORmO mice)	half-life ([1]; in mice)
Cc1cc(=O)oc2cc(O[C@@H]3O[C@H](C(=O)O)[C@@H](O)[C@H](O)[C@H]3O)ccc12 [4-MUG, 4-methylumbelliferone-glucuronide]	decrease of HA accumulation	delayed the onset of T1D	soon recovered	improvement in glycemic control	reduced HA staining	reliably decreased blood glucose	300 fold	more than 3,000 fold	–	–	–
Cc1cc(=O)oc2cc(O)ccc12 [4-MU, 4-methylumbelliferone]	decrease of HA accumulation	sufficient to stop diabetes progression	initial decrease in weight	improvement in glycemic control	reduced HA staining	reliably decreased blood glucose	–	–	insulin positive cells were preserved	increase of Foxp3 regulatory T-cells	3 min
